Measured values from US12453709B2, “Compositions and methods for treating autism” (priority 2013, dated 2025).

Tested on: patients qualified under the DSM-5 definition of autism
Test: Example 4: Aberrant Behavior Checklist-Community (ABC-C)
Assay type: in vivo, human
Details: for ABC irritability / ABC lethargy / ABC speech / ABC stereotypy / ABC hyperactivity / ABC TOTAL: PT RS; for ABC irritability: initial 3; for ABC lethargy: initial 6; for ABC speech: initial 8; for ABC TOTAL: initial 53
Procedure: α-methyl-DL tyrosine (AMPT) was administered to 3 patients. This group of patients was qualified under the DSM-5 definition of autism and treated. The Aberrant Behavior Checklist-Community (ABC-C), Autism Diagnostic Observation Schedule (ADOS), Conners Parent Rating Scale (CPRS), and General Clinical Impressions scale were used to assess the disease. Videos were taken at each visit.

Compound: CC(N)(Cc1ccc(O)cc1)C(=O)O (racemic) [L1-79, α-methyl-DL-tyrosine]
- ABC-C speech (PT LR, Day 7, initial 5): 7
- ABC-C stereotypy (PT LR, Day 7, initial 13): 5
- ABC-C irritability (PT LR, Day 7, initial 21): 16
- ABC-C lethargy (PT LR, Day 7, initial 31): 12
- ABC-C hyperactivity (PT LR, Day 7, initial 34): 31
- ABC-C TOTAL (PT LR, Day 7, initial 114): 71
- ABC-C speech (PT LR, Day 14, initial 5): 7
- ABC-C stereotypy (PT LR, Day 14, initial 13): 0
- ABC-C irritability (PT LR, Day 14, initial 21): 16
- ABC-C lethargy (PT LR, Day 14, initial 31): 8
- ABC-C hyperactivity (PT LR, Day 14, initial 34): 24
- ABC-C TOTAL (PT LR, Day 14, initial 114): 55
- ABC-C speech (PT LR, Day 21, initial 5): 7
- ABC-C stereotypy (PT LR, Day 21, initial 13): 0
- ABC-C irritability (PT LR, Day 21, initial 21): 16
- ABC-C lethargy (PT LR, Day 21, initial 31): 7
- ABC-C hyperactivity (PT LR, Day 21, initial 34): 23
- ABC-C TOTAL (PT LR, Day 21, initial 114): 53
- ABC-C speech (PT LR, Day 28, initial 5): 7
- ABC-C stereotypy (PT LR, Day 28, initial 13): 0
- ABC-C irritability (PT LR, Day 28, initial 21): 16
- ABC-C lethargy (PT LR, Day 28, initial 31): 7
- ABC-C hyperactivity (PT LR, Day 28, initial 34): 23
- ABC-C TOTAL (PT LR, Day 28, initial 114): 53
- ABC irritability (Day 7): 3
- ABC lethargy (Day 7): 3
- ABC speech (Day 7): 3
- ABC stereotypy (Day 7, initial 16): 11
- ABC hyperactivity (Day 7, initial 20): 8
- ABC TOTAL (Day 7): 28
- ABC irritability (Day 14): 1
- ABC lethargy (Day 14): 1
- ABC speech (Day 14): 3
- ABC stereotypy (Day 14, initial 16): 9
- ABC hyperactivity (Day 14, initial 20): 6
- ABC TOTAL (Day 14): 20
- ABC irritability (Day 21): 1
- ABC lethargy (Day 21): 1
- ABC speech (Day 21): 3
- ABC stereotypy (Day 21, initial 16): 9
- ABC hyperactivity (Day 21, initial 20): 6
- ABC TOTAL (Day 21): 20
- ABC irritability (Day 28): 1
- ABC lethargy (Day 28): 1
- ABC speech (Day 28): 3
- ABC stereotypy (Day 28, initial 16): 9
- ABC hyperactivity (Day 28, initial 20): 6
- ABC TOTAL (Day 28): 20
- ABC-C speech (PT WC, Day 7, initial 1): 0
- ABC-C stereotypy (PT WC, Day 7, initial 12): 7
- ABC-C irritability (PT WC, Day 7, initial 16): 4
- ABC-C hyperactivity (PT WC, Day 7, initial 20): 10
- ABC-C lethargy (PT WC, Day 7, initial 21): 9
- ABC-C TOTAL (PT WC, Day 7, initial 70): 30
- ABC-C speech (PT WC, Day 14, initial 1): 0
- ABC-C stereotypy (PT WC, Day 14, initial 12): 6
- ABC-C irritability (PT WC, Day 14, initial 16): 2
- ABC-C hyperactivity (PT WC, Day 14, initial 20): 7
- ABC-C lethargy (PT WC, Day 14, initial 21): 3
- ABC-C TOTAL (PT WC, Day 14, initial 70): 18
- ABC-C speech (PT WC, Day 21, initial 1): 0
- ABC-C stereotypy (PT WC, Day 21, initial 12): 6
- ABC-C irritability (PT WC, Day 21, initial 16): 2
- ABC-C hyperactivity (PT WC, Day 21, initial 20): 7
- ABC-C lethargy (PT WC, Day 21, initial 21): 2
- ABC-C TOTAL (PT WC, Day 21, initial 70): 17
- ABC-C speech (PT WC, Day 28, initial 1): 0
- ABC-C stereotypy (PT WC, Day 28, initial 12): 6
- ABC-C irritability (PT WC, Day 28, initial 16): 2
- ABC-C hyperactivity (PT WC, Day 28, initial 20): 7
- ABC-C lethargy (PT WC, Day 28, initial 21): 2
- ABC-C TOTAL (PT WC, Day 28, initial 70): 17
